Results from patent publication US20240391899A1, “POTENT AND SELECTIVE INHIBITORS OF IRAK4” (Dana-Farber Cancer Institute, Inc., priority 2021, published 2024).
pIC50: −log10 of the molar value.

Tests used:
IRAK4 = target: T1, IRAK4 (Homo sapiens, UniProt Q9NWZ3); assay: IRAK4 enzymatic assay (Z'-LYTE, ThermoFisher); assay type: biochemical; settings: 60 minutes at room temperature
T1 construct: purchased ThermoFisher
T1 sequence (Q9NWZ3 1-460): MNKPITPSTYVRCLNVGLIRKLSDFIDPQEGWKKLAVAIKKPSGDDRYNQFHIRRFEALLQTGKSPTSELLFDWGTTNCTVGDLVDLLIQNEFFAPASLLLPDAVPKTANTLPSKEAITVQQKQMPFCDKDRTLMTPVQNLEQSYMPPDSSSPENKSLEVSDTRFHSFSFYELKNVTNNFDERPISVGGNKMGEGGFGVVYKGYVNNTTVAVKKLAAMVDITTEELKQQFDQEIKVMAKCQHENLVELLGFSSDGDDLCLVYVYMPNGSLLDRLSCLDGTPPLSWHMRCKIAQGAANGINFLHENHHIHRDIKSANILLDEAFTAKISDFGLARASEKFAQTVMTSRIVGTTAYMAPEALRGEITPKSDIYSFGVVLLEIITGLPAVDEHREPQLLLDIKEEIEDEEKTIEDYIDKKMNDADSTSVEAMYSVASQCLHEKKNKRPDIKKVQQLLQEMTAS
Experimental: To measure the IC50 values of compounds herein against IRAK4, a Z′-LYTE assay (ThermoFisher) was used. Briefly, 2.5 μL of different concentrations of the compounds in 1% DMSO were added to 2.4 μL kinase buffer (50 mM HEPES pH 7.5, 0.01% BRIJ-35, 10 mM MgCl2, 1 mM EGTA) in each well of a 384-well plate (Corning Cat. #3676). 5 μL of 2×IRAK4/Ser/Thr 07 mixture (prepared in 50 mM HEPES pH 7.5, 0.01% BRIJ-35, 10 mM MnCl2, 2 mM DTT, and 0.02% NaN3) and 2.5 μL of 4×ATP solution (4×ATP, 50 mM HEPES, pH 7.5, 0.01% BRIJ-35, 10 mM MgCl2, 1 mM EGTA) were added to each well. The plate was shaken for 30 seconds, and then incubated at room temperature for 60 minutes. 5 μL of a 1:100000 dilution of Development Reagent A was added to each well. The plate was shaken for 30 seconds and incubated for 60 minutes at room temperature. The plate was subsequently read on a fluorescence plate reader, and the emissions ratio was calculated to determine the ratio of Ser/Thr 07 phosphorylated by the reaction. Emissions Ratio=Coumarin Emission (443 nm)/Flourescein Emission (520 nm).

IRAK1 = target: T2, IRAK1 (Homo sapiens, UniProt P51617); assay: IRAK1 enzymatic assay (Adapta Universal Kinase Assay, ThermoFisher); assay type: biochemical; settings: 60 minutes at room temperature
T2 construct: purchased ThermoFisher
Experimental: To measure the IC50 values of the compounds herein against IRAK1, the Adapta Universal Kinase Assay (ThermoFisher) was used. Briefly, 100 nL of different concentrations of the compounds in 100% DMSO were added to each well of a 384-well plate (Corning Cat. #4512). 2.4 μL of 30 mM HEPES, 2.5 μL of 4×ATP solution (in water), and 5 μL of 2×IRAK1/Histone H3 (1-20) peptide mixture (prepared in 50 mM HEPES pH 7.5, 0.01% BRIJ-35, 10 mM MgCl2, 1 mM EGTA) were added to each well. The plate was shaken for 30 seconds and centrifuged for 1 minute at 1000×g. The plate was then incubated at room temperature for 60 minutes. 5 μL of Detection Mix was added to each well. The plate was shaken for 30 seconds and centrifuged for 1 minute at 1000×g. The plate was then incubated at room temperature for 60 minutes. The plate was subsequently read on a fluorescence plate reader, and the emissions ratio was calculated to determine the ratio of ATP to ADP. Emissions Ratio=AF647 Emission (665 nm)/Europium Emission (615 nm).

T2 sequence (P51617 whole entry): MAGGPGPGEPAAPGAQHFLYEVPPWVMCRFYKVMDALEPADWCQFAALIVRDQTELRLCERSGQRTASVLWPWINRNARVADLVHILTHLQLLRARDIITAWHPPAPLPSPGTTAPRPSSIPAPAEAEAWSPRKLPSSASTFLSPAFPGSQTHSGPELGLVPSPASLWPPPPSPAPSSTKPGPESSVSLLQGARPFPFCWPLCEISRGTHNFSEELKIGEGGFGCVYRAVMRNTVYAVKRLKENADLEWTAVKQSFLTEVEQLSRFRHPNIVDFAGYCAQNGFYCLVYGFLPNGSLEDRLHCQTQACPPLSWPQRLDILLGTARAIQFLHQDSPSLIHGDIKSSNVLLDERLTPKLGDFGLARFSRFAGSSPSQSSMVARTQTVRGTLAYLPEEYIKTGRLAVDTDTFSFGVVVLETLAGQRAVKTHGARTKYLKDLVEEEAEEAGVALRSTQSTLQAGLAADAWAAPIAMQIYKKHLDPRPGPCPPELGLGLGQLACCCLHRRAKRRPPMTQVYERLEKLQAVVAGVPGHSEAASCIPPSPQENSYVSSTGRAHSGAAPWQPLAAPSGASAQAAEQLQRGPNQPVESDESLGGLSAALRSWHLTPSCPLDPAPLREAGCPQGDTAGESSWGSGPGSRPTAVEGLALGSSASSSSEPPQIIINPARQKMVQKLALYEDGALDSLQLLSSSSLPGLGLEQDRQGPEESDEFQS

| Structure (SMILES) | pIC50 (IRAK4) | pIC50 (IRAK1) |
| --- | --- | --- |
| Cc1ccc(-n2nc(C3CCN(C(C)C)CC3)cc2NC(=O)c2cccc(-c3cn[nH]c3)n2)nc1 [Compound 002, N-(3-(1-isopropylpiperidin-4-yl)-1-(5-methylpyridin-2-yl)-1H-pyrazol-5-yl)-6-(1H-pyrazol-4-yl)picolinamide] | 8.52 | 7.44 |
| CC(C)N1CCC(c2cc(NC(=O)c3cccc(-c4cnsc4)n3)n(-c3ccccn3)n2)CC1 [Compound 005, N-(3-(1-isopropylpiperidin-4-yl)-1-(pyridin-2-yl)-1H-pyrazol-5-yl)-6-(isothiazol-4-yl)picolinamide] | 7.43 | 6.74 |
| CN1CCC(c2cc(NC(=O)c3cccc(-c4ccn[nH]4)n3)n(-c3ccccn3)n2)CC1 [Compound 001, N-(3-(1-Methylpiperidin-4-yl)-1-(pyridin-2-yl)-1H-pyrazol-5-yl)-6-(1H-pyrazol-5-yl)picolinamide] | 8.40 | 8.10 |
| CC(C)N1CCC(c2cc(NC(=O)c3cccc(-c4cnoc4)n3)n(-c3ccccn3)n2)CC1 [Compound 007, N-(3-(1-isopropylpiperidin-4-yl)-1-(pyridin-2-yl)-1H-pyrazol-5-yl)-6-(isoxazol-4-yl)picolinamide] | 7.51 | 6.50 |
| Cc1ccc(-n2nc(C3CCN(C(C)C)CC3)cc2NC(=O)c2cccc(-c3cnoc3)n2)nc1 [Compound 006, N-(3-(1-isopropylpiperidin-4-yl)-1-(5-methylpyridin-2-yl)-1H-pyrazol-5-yl)-6-(isoxazol-4-yl)picolinamide] | 8.22 | 7.82 |
| Cc1ccc(-n2nc(C3CCN(C(C)C)CC3)cc2NC(=O)c2ccccn2)nc1 [Compound 009, N-(3-(1-isopropylpiperidin-4-yl)-1-(5-methylpyridin-2-yl)-1H-pyrazol-5-yl)picolinamide] | 7.26 | 5.78 |
| Cc1ccc(-n2nc(C3CCN(C4COC4)CC3)cc2NC(=O)c2ccccn2)nc1 [Compound 008, N-(1-(5-methylpyridin-2-yl)-3-(1-(oxetan-3-yl)piperidin-4-yl)-1H-pyrazol-5-yl)picolinamide] | 6.83 | 5.87 |
| CC(C)N1CCC(c2cc(NC(=O)c3ccccn3)n(-c3ccccn3)n2)CC1 [Compound 010, N-(3-(1-isopropylpiperidin-4-yl)-1-(pyridin-2-yl)-1H-pyrazol-5-yl)picolinamide] | 7.37 | 5.96 |
| Cc1ccc(-n2nc(C3CCN(C(C)C)CC3)cc2NC(=O)c2cccc(-c3cnsc3)n2)nc1 [Compound 004, N-(3-(1-isopropylpiperidin-4-yl)-1-(5-methylpyridin-2-yl)-1H-pyrazol-5-yl)-6-(isothiazol-4-yl)picolinamide] | 7.62 | 6.43 |
| CC(C)N1CCC(c2cc(NC(=O)c3cccc(-c4cn[nH]c4)n3)n(-c3ccccn3)n2)CC1 [Compound 003, N-(3-(1-isopropylpiperidin-4-yl)-1-(pyridin-2-yl)-1H-pyrazol-5-yl)-6-(1H-pyrazol-4-yl)picolinamide] | 8.22 | 7.18 |

Second part, the compound after the results:

| pIC50 (IRAK4) | pIC50 (IRAK1) | Structure (SMILES) |
| --- | --- | --- |
| 6.25 | 5.00 | CC(C)N1CCC(c2cc(NC(=O)c3cccc(N4CCNCC4)n3)n(-c3ccccn3)n2)CC1 [Compound 020, N-(3-(1-isopropylpiperidin-4-yl)-1-(pyridin-2-yl)-1H-pyrazol-5-yl)-6-(piperazin-1-yl)picolinamide] |
| 8.05 | 7.05 | Cc1ccc(-n2nc(C3CCN(C(C)C)CC3)cc2NC(=O)c2cccc(C#N)n2)nc1 [Compound 017, 6-cyano-N-(3-(1-isopropylpiperidin-4-yl)-1-(5-methylpyridin-2-yl)-1H-pyrazol-5-yl)picolinamide] |
| 6.77 | 6.08 | Cc1ccc(-n2nc(C3CCN(C)CC3)cc2NC(=O)c2ccccn2)nc1 [Compound 011, N-(3-(1-methylpiperidin-4-yl)-1-(5-methylpyridin-2-yl)-1H-pyrazol-5-yl)picolinamide] |
| 8.52 | 8.15 | Cc1ccc(-n2nc(C3CCN(C(C)C)CC3)cc2NC(=O)c2cccc(-c3ccn[nH]3)n2)nc1 [Compound 012, N-(3-(1-isopropylpiperidin-4-yl)-1-(5-methylpyridin-2-yl)-1H-pyrazol-5-yl)-6-(1H-pyrazol-5-yl)picolinamide] |
| 7.41 | 6.08 | CC(C)N1CCC(c2cc(NC(=O)c3cccc(-c4cnn(CC(N)=O)c4)n3)n(-c3ccccn3)n2)CC1 [Compound 016, 6-(1-(2-amino-2-oxoethyl)-1H-pyrazol-4-yl)-N-(3-(1-isopropylpiperidin-4-yl)-1-(pyridin-2-yl)-1H-pyrazol-5-yl)picolinamide] |
| 7.33 | 6.62 | CC(C)N1CCC(c2cc(NC(=O)c3cccc(CCC(N)=O)n3)n(-c3ccccn3)n2)CC1 [Compound 019, 6-(3-amino-3-oxopropyl)-N-(3-(1-isopropylpiperidin-4-yl)-1-(pyridin-2-yl)-1H-pyrazol-5-yl)picolinamide] |
| 7.35 | 6.14 | Cc1ccc(-n2nc(C3CCN(C(C)C)CC3)cc2NC(=O)c2cccc(-c3cnn(CC(=O)N(C)C)c3)n2)nc1 [Compound 013, 6-(1-(2-(dimethylamino)-2-oxoethyl)-1H-pyrazol-4-yl)-N-(3-(1-isopropylpiperidin-4-yl)-1-(5-methylpyridin-2-yl)-1H-pyrazol-5-yl)picolinamide] |
| 7.62 | 6.63 | CC(C)N1CCC(c2cc(NC(=O)c3cccc(/C=C/C(N)=O)n3)n(-c3ccccn3)n2)CC1 [Compound 018, (E)-6-(3-amino-3-oxoprop-1-en-1-yl)-N-(3-(1-isopropylpiperidin-4-yl)-1-(pyridin-2-yl)-1H-pyrazol-5-yl)picolinamide] |
| 7.44 | 6.18 | CNC(=O)Cn1cc(-c2cccc(C(=O)Nc3cc(C4CCN(C(C)C)CC4)nn3-c3ccc(C)cn3)n2)cn1 [Compound 014, N-(3-(1-isopropylpiperidin-4-yl)-1-(5-methylpyridin-2-yl)-1H-pyrazol-5-yl)-6-(1-(2-(methylamino)-2-oxoethyl)-1H-pyrazol-4-yl)picolinamide] |
